The record followed here is PubChem BioAssay (NCI).

Holding throughout (assay): growth of human tumour cells (NCI), 48 h
Test [1] deals with BT-549 breast.
In test [2] the test system is HCT-116 colon.
In test [3] the test system is HOP-62 NSCLC.
The test system of test [4] is NCI-H460 lung.
Test [5] relates to NCI/ADR-RES ovarian.
Test [6] deals with OVCAR-5 ovarian.
Test [7] relates to SF-539 CNS.
Test [8] relates to SK-MEL-2 melanoma.
In test [9] the test system is SNB-75 CNS.
Test [10] concerns U251 CNS.

Where “and” joins values, the source holds several entries; their conditions need not be identical. Identical values can stand only once.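 Test compounds were applied to cells in 96-well plates for 48 hours at 5 doses. Here, GI50 denotes the concentration required for 50% inhibition of growth. TGI: concentration producing complete growth inhibition.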 Where only a bound is given, the exact number is not on record here.

Take `CN1CCN(Cc2ccc(NC(=O)c3cncc(C#Cc4cncc5ncccc45)c3)cc2C(F)(F)F)CC1`: the GI50 in [1] is 7.9 µM; in test [2] it was 1.26 µM; in [3], 2.53 µM; in test [4] it was 2.5 µM; in test [5], 5.34 µM; in [6], 1.8 µM. Further, the GI50 in test [7] is 0.829 µM; in test [8], 0.542 µM; in test [9], 5.83 µM; in [10], 9.49 µM. Moreover, the TGI in [1] came out at 20.4 µM; in test [2], 11.5 µM; in test [3], 12 µM; in test [4], 11.8 µM; in test [5], 18.9 µM; in test [6], 14 µM. For the same molecule, the TGI was 2.96 µM in test [7], 2.48 µM in [8], 18.8 µM in test [9] and 21.8 µM in [10].

As to `Cn1c(O)c(C(/C=C/c2ccccc2)=NCCN=C(/C=C/c2ccccc2)c2c(O)n(C)c(=O)n(C)c2=O)c(=O)n(C)c1=O`, the GI50 is 10.2 µM in [1]; 13.6 µM in test [2]; 23.4 µM in test [3]; 10.1 µM in test [4]; 15.3 µM in [5]; 16.8 µM in test [6]. The GI50 in test [7] was 13.7 µM; in test [8] it was 27.3 µM; in test [9] it was 17.6 µM; in test [10], 18.3 µM. Also, the TGI in [1] was 29.5 µM; in [2] it was greater than 50 µM; in test [3], greater than 50 µM; in test [4], 24.6 µM; in test [5], greater than 50 µM; in test [6], greater than 50 µM. Besides, the TGI in test [7] is 33.3 µM; in [8] it was greater than 50 µM; in [9], greater than 50 µM; in [10], greater than 50 µM.

Take `Cc1ccc(C)c(NC(=O)NCc2ccc(Cl)cc2)c1`: the TGI is greater than 100 µM in test [1]; greater than 100 µM in test [2]; 37 µM in test [3]; greater than 100 µM in test [4]; greater than 100 µM in test [5]; greater than 100 µM in test [6]. Besides, the TGI in test [7] is greater than 100 µM; in test [8], greater than 100 µM; in test [9] it was 6.26 µM; in [10] it was greater than 100 µM.

Turning to `Cn1cc(C2=C(c3cccnc3)C(=O)NC2=O)c2ccccc21`, the GI50 is greater than 25 µM in test [1]; 15 µM in test [2]; greater than 21.9 µM in test [3]; greater than 23.1 µM in test [4]; greater than 25 µM in test [5]; greater than 25 µM in [6]. For the same molecule, the GI50 in test [7] was 11.4 µM; in test [8], greater than 13 µM; in test [9], 0.882 µM; in test [10], 18.8 µM. In addition, the TGI in [1], in test [2], in test [3], in test [4], in test [5] and in [6] was greater than 25 µM throughout. In addition, the TGI was greater than 25 µM in test [7], 25 µM in [8], greater than 25 µM in test [9] and greater than 25 µM in test [10].

`Cc1cnc(/C=N\NC(N)=S)c2cccc(N)c12`: the GI50 was 3.52 µM in test [1]; 4.41 µM in [2]; 2.89 µM in [3]; 2.61 µM in [4]; 3.53 µM in test [5]; greater than 21.3 µM in test [6]. The GI50 in test [7] was 0.596 µM; in [8], greater than 29.2 µM; in test [9], 1.35 µM; in test [10], 2 µM. Moreover, the TGI in test [1] is greater than 100 µM; in [2], > 100 µM and 28.3 µM; in [3], greater than 100 µM; in [4], greater than 37.7 µM; in test [5] it was > 100 µM and 17.8 µM; in test [6], greater than 100 µM. The TGI in test [7] is 3.7 µM and > 27.7 µM; in test [8], greater than 100 µM; in test [9], > 27 µM and 9.48 µM; in [10], greater than 100 µM.

On to `C[C@@H]1CC[C@@H]2[C@@H]1[C@H](OC(=O)/C=C/c1ccccc1)[C@]1(C3CCCCC3)C[C@@H](NC(=O)CO)[C@@]2(C)O1`, for which the GI50 in [1] is 13.2 µM; in test [2], 19.5 µM; in test [3], 17.4 µM; in [4] it was 16.6 µM; in [5], 12.9 µM; in [6], 16.2 µM. Also, the GI50 is 16.7 µM in [7], 16.8 µM in test [8], 12.6 µM in test [9] and 18.6 µM in test [10]. Further, the TGI came to 26.7 µM in test [1]; 34.2 µM in test [2]; 33.5 µM in test [3]; 32.8 µM in test [4]; 32.1 µM in test [5]; 30.8 µM in [6]. The TGI in test [7] was 31.4 µM; in test [8] it was 32.8 µM; in test [9] it was 26.9 µM; in [10], 34 µM.

In the case of `N#Cc1ccc(N2Cc3ccccc3OC3=C2C(=O)c2c(O)ccc(O)c2C3=O)cc1`, the GI50 in test [1] is 0.572 µM; in test [2], 0.102 µM; in test [3], 1.29 µM; in [4], 0.897 µM; in test [5], 0.611 µM; in [6] it was 0.437 µM. In addition, the GI50 in test [7] is 0.564 µM; in test [8], 1.01 µM; in test [9], 0.66 µM; in test [10] it was 0.514 µM. The TGI in test [1] turned out to be 1.26 µM; in [2] it was 0.35 µM; in test [3], 4.99 µM; in test [4], 4.23 µM; in test [5] it was 6.8 µM; in test [6], 1.58 µM. Also, the TGI stood at 1.38 µM in test [7], 3.8 µM in test [8], 2.68 µM in test [9] and 1.71 µM in test [10].

With `O=C(Nc1ccc(Cl)cc1F)c1cc(I)ccc1O`, the GI50 in test [1] is 0.735 µM; in [2], 1.22 µM; in test [3], 2.35 µM; in test [4] it was 1.5 µM; in test [5] it was 2.02 µM; in test [6], 4.21 µM. The GI50 in [7] was 1.1 µM; in test [8], 0.836 µM; in test [9], 0.187 µM; in test [10] it was 1.64 µM. Also, the TGI is 2.64 µM in test [1]; 2.87 µM in test [2]; 8.04 µM in test [3]; 14.2 µM in test [4]; 8.68 µM in test [5]; greater than 100 µM in [6]. For the same molecule, the TGI in [7] stood at 5.78 µM; in test [8] it was 4.25 µM; in test [9], 2.82 µM; in test [10], 21.2 µM.

On to `CCN1C(=O)NC(=O)C(C)(N2C(=O)c3c(F)c(F)c(F)c(F)c3C2=O)C1=O` (stereo not given), for which the GI50 in test [1] was 3.82 µM; in test [2], 2.36 µM; in [3], 5.97 µM; in test [4] it was 4.95 µM; in test [5] it was 3.6 µM; in test [6], 3.82 µM. For the same molecule, the GI50 is 2.89 µM in [7], 3.84 µM in test [8], 2.96 µM in [9] and 1.93 µM in test [10]. The TGI in test [1] is 13.3 µM; in test [2], 7.31 µM; in [3], 18.3 µM; in [4], 10.6 µM; in test [5] it was 18.2 µM; in test [6] it was 14.8 µM. The TGI in test [7] is 8.02 µM; in test [8], 21.6 µM; in test [9], 11.1 µM; in test [10], 4.04 µM.

Consider `O=C(CN1CCN(c2ccc(Cl)cc2)CC1)N1CCN(c2nnc(-c3ccc(Cl)cc3)c(-c3ccc(Cl)cc3)n2)CC1`, for which the GI50 in test [1] was 28.7 µM; in test [2] it was 7.84 µM; in test [3] it was 40.9 µM; in test [4], greater than 100 µM; in [5], 34 µM; in [6], greater than 100 µM. Besides, the GI50 in test [7] was 19.6 µM; in test [8], 51.5 µM; in [9] it was 15.1 µM; in [10], 41.7 µM. The TGI in [1], in test [2], in [3], in test [4], in test [5] and in [6] was greater than 100 µM in each case. In addition, the TGI was 69.9 µM in [7], greater than 100 µM in [8], 35.5 µM in test [9] and greater than 100 µM in [10].

As to `O=C([O][Hg][CH2]C1COC([CH2][Hg][O]C(=O)c2ccccc2)CO1)c1ccccc1` (stereo not given), the GI50 in [1] is 7.71 µM and 1.69 µM; in test [2] it was 4.24 µM and 1.39 µM; in test [3] it was 19.2 µM and 20.7 µM; in [4], 17.3 µM and 3.49 µM; in test [5], 10.9 µM and 1.74 µM; in [6] it was 18 µM. For the same molecule, the GI50 is 15.8 µM and 14.4 µM in [7]; 12.8 µM and 1.84 µM in test [8]; 17.6 µM and 4.32 µM in test [9]; 4.46 µM and 13.5 µM in test [10]. Further, the TGI in test [1] was 20.4 µM and 3.27 µM; in [2], 14.7 µM and 2.68 µM; in [3], 37.9 µM and 56.4 µM; in [4], 33.4 µM and 21.6 µM; in test [5], 28.9 µM and 4.76 µM; in test [6], 31.9 µM. Besides, the TGI in [7] was 29.7 µM and 30.5 µM; in [8], 25.7 µM and 3.75 µM; in test [9], 31.9 µM and 23.4 µM; in test [10] it was 10.8 µM and 27 µM.
